# In patent US6723732B1, “Percutaneously adminstrable preparations containing cerebral function activators” (Shionogi & Co., Ltd., priority 1998, dated 2004):
# Read-outs that look alike come from different tables or passages of the source.
# Assays:
# [1] = Percutaneous administration by strapping technique to conscious rats (rayon cloth on abdominal region), plasma concentration by HPLC; assay type: in vivo, rat (Jcl Wistar strain male); conditions: for BA: absolute bioavailability, AUC percutaneous divided by AUC intravenous; for Percent of apparent absorption: residual drug in rayon cloth recovered at 24 hr; for Cmax / Tmax / AUC(0-t): male, Jcl Wistar, rat, plasma, topical or ocular, conscious rats; for Cmax: aqueous base 3% 1-menthol/30% ethanol/67% pH 4 phosphate buffer, 5.6 mg/mL; for Tmax / AUC(0-t): aqueous base pH 4, 5.6 mg/mL; for AUC(0-t): read-out: AUC 0-360 min (converted)
# Protocol: The experiment was performed by the strapping technique under the conscious condition. Non-fasting rats (Jcl Wistar strain male rat 9-11 W) were cannulated in the jugular vein two days before the percutaneous administration experiment. On the day of experiment, abdominal region hair of rats were removed using a hair clipper and shaver under ether anesthesia. Three different volumes (0.125, 0.25, and 0.5 mL) of the aqueous basic formulation (3% 1-menthol/30% ethanol/67% pH 4 phosphate buffer) containing 5.6 mg/mL of Compound (I-1) were administered (2, 4, and 8 mg/kg) on the rayon cloths, which area were 2.5, 5, and 10 cm^2, respectively, supported by tape on the abdominal region then covered with gum tape. Blood samples were collected from the jugular vein of the rats in a cage, at the time of 0, 0.5, 1, 2, 3, 4, 6, 8, and 10 hr. Plasma concentrations were measured by HPLC. The rayon cloths were recovered at 24 hr after the administration and the residual drug was extracted by 30 mL of methanol in a 50 mL centrifuge tube and measured its concentration by HPLC. The percent of apparent absorption was calculated and the absolute bioavailability was calculated from the AUC of percutaneous administration divided by the AUC of intravenous administration.
# [2] = Percutaneous administration to anesthetized rats (glass cell on abdominal skin), plasma concentration by HPLC and residual drug recovery; assay type: in vivo, rat (Jcl SD strain); conditions: for MRT / AUC / Cmax / Tmax: Jcl SD, rat, plasma, topical or ocular, N=3
# Protocol: (I) A base was composed of 2.5% 1-menthol/20% ethanol/77.5% distilled water. The phosphate salt of Compound (I-1) as an active ingredient was dissolved or dispersed in it at concentrations of 1.4, 5.6, and 11.2 mg/mL. (II) To Non-fasting rats (Jcl SD strain rat, 9-10 weeks old) was injected 20% urethane solution subcutaneously (0.65 mL/100 g BW). After the anesthetic condition of the rat became stable, abdominal hair was removed using a hair clipper and shaver, then the rats were kept on a hotplate at 36° C. A glass cell (35 mm I.D. with a ground stopper) was attached using Aron alpha (trademark) in an abdominal region of the rat and absorbent gauze (about two sheets) was placed in the cell, then 0.5 mL of the above obtained pharmaceutical preparations of the invention was administrated to the cell (2, 8 or 16 mg/kg, N=3). (III) The time of blood collection: 0, 1, 2, 3, 4, 6, and 8 hr after the administration (IV) After the blood collection at 8 hrs, the residual drug in pharmaceutical preparations of the present invention in the cell was recovered by the addition of 50 mL of methanol. The percent of apparent absorption was calculated by the difference between the initial dose and the recovered amount at 8 hrs. AUC and MRT were calculated from plasma concentration profiles measured by HPLC. Furthermore, the skin to which the applied pharmaceutical preparations were applied and their subcutaneous part were removed and macroscopically checked after the experiments. A phosphate buffer of pH 9 was prepared from 1/15 mole of dibasic sodium phosphate dissolved in […] of distilled water. The phosphate buffers of pH 4 and pH 7 were prepared by the addition of phosphoric acid to the pH 9 buffer. A bBase was composed of 3% 1-menthol/30% ethanol/67% phosphate buffer. The phosphate salt of Compound (I-1) as an active ingredient was dissolved or dispersed in the base at a concentration of 5.6 mg/mL. Other conditions were the same as that of Experiment 1 (N=3). Results are represented in Table 2 and FIG. 2. The phosphate salt of Compound (I-1) as an active ingredient was dissolved or dispersed in bases in Table 3 at a concentration of 5.6 mg/mL. Other condition were the same as that of the Experiment 1. The 3% 1-menthol/30% ethanol/67% pH 4 phosphate buffer was selected as an aqueous base. The 2.5% 1-menthol/20% ethanol/77.5% isopropyl myristate was selected as an oily base. The phosphate salt of Compound (I-1) as an active ingredient was dissolved or dispersed in the aqueous or oily formulation at a concentration of 5.6 mg/mL. Other conditions were the same as that of Experiment 1 (N=3).
# skin = assay: Macroscopic check of the applied skin and subcutaneous part after the experiment (irritation); assay type: in vivo, rat (Jcl SD strain)
# Protocol: (IV) After the blood collection at 8 hrs, the residual drug in pharmaceutical preparations of the present invention in the cell was recovered by the addition of 50 mL of methanol. The percent of apparent absorption was calculated by the difference between the initial dose and the recovered amount at 8 hrs. AUC and MRT were calculated from plasma concentration profiles measured by HPLC. Furthermore, the skin to which the applied pharmaceutical preparations were applied and their subcutaneous part were removed and macroscopically checked after the experiments.
# acetylcholine release = assay: Acetylcholine release in frontal cortex dialysate (microdialysis) after percutaneous administration; assay type: in vivo, rat (Jcl Wistar strain male); conditions: 2, 4 and 8 mg/kg percutaneous, aqueous basic formulation 5.6 mg/mL; values only in FIG. 5 and 6
# Protocol: The day before experiment, a dialysis probe of 2 mm membrane length was inserted into frontal cortex of non-fasting rats (Jcl Wistar strain male rat 9-11 W). On the day of experiment, abdominal region hair was removed using a hair clipper and shaver under 2% halothane anesthesia. The aqueous basic formulation containing 5.6 mg/mL of Compound (I-1) was administered at a volume of 0.125, 0.25 and 0.5 mL to the rayon cloths which area were 2.5, 5, and 10 cm^2, respectively (Dose: 2, 4 and 8 mg/kg). Then the rayon cloths were placed on the abdominal region by support tape and covered with gum tape. After the administration, acetylcholine concentration in dialysate was measured every 30 min. FIG. 5 indicates a time-course of acetylcholine release after the administration of Compound (I-1). The plot data express the percent of control and the control level was monitored before the administration of Compound (I-1) in the same rat. The AUC values were calculated for 4 hrs of acetylcholine release as the percent of control in FIG. 6.
# [3] = 8 mg/kg, pH 4, aqueous base 3% 1-menthol/30% ethanol/67% pH 4 phosphate buffer, phosphate salt 5.6 mg/mL
# [4] = 8 mg/kg, pH 4, base pH 4: 3% 1-menthol/30% ethanol/67% phosphate buffer, phosphate salt 5.6 mg/mL
# [5] = 8 mg/kg, pH 7, base pH 7: 3% 1-menthol/30% ethanol/67% phosphate buffer, phosphate salt 5.6 mg/mL
# [6] = 8 mg/kg, aqueous base 3% 1-menthol/30% ethanol/67% pH 4 phosphate buffer, phosphate salt 5.6 mg/mL
# [7] = 8 mg/kg, oily base 2.5% 1-menthol/20% ethanol/77.5% isopropyl myristate, phosphate salt 5.6 mg/mL
smiles,measurement,setting,value
"c1cc(-c2nc3c4c(ncc3[nH]2)CCOC4)no1 [Compound (I-1), 2-(3-isoxazolyl)-3,6,7,9-tetrahydroimidazo[4,5-d]pyrano[4,3-b]pyridine]",BA,[1]; 2 mg/kg percutaneous,30.92 ± 2.59%
same,Percent of apparent absorption,[1]; 2 mg/kg percutaneous,63.9%
same,BA,[1]; 4 mg/kg percutaneous,17.86 ± 6.40%
same,Percent of apparent absorption,[1]; 4 mg/kg percutaneous,52.8%
same,BA,[1]; 8 mg/kg percutaneous,22.68 ± 9.47%
same,Percent of apparent absorption,[1]; 8 mg/kg percutaneous,60.0%
same,Cmax,"[1]; 2 mg/kg percutaneous (0.125 mL, 2.5 cm^2)",140 ± 30 ng/mL
same,Tmax,[1]; 2 mg/kg percutaneous,1.25 h
same,AUC(0-t),[1]; 2 mg/kg percutaneous,375 ng·h/mL
same,Cmax,"[1]; 4 mg/kg percutaneous (0.25 mL, 5 cm^2)",170 ± 60 ng/mL
same,Tmax,[1]; 4 mg/kg percutaneous,1.55 h
same,AUC(0-t),[1]; 4 mg/kg percutaneous,408 ng·h/mL
same,Cmax,"[1]; 8 mg/kg percutaneous (0.5 mL, 10 cm^2)",450 ± 150 ng/mL
same,Tmax,[1]; 8 mg/kg percutaneous,0.85 h
same,AUC(0-t),[1]; 8 mg/kg percutaneous,1000 ng·h/mL
same,Percent of apparent absorption,"[2]; 2 mg/kg percutaneous, phosphate salt in 2.5% 1-menthol/20% ethanol/77.5% distilled water, initial dose minus recovered amount at 8 hrs",71.3%
same,Percent of apparent absorption,"[2]; 8 mg/kg percutaneous, phosphate salt in 2.5% 1-menthol/20% ethanol/77.5% distilled water, initial dose minus recovered amount at 8 hrs",81.0%
same,Percent of apparent absorption,"[2]; 16 mg/kg percutaneous, phosphate salt in 2.5% 1-menthol/20% ethanol/77.5% distilled water, initial dose minus recovered amount at 8 hrs",35.8%
same,MRT,"[2]; 2 mg/kg, 2 mg/kg percutaneous, phosphate salt 1.4 mg/mL in 2.5% 1-menthol/20% ethanol/77.5% distilled water",3.4 ± 0.6 h
same,AUC,"[2]; 2 mg/kg, 2 mg/kg percutaneous, phosphate salt 1.4 mg/mL in 2.5% 1-menthol/20% ethanol/77.5% distilled water, blood to 8 hr",490 ± 500 ng·h/mL
same,MRT,"[2]; 8 mg/kg, 8 mg/kg percutaneous, phosphate salt 5.6 mg/mL in 2.5% 1-menthol/20% ethanol/77.5% distilled water",3.6 ± 0.2 h
same,AUC,"[2]; 8 mg/kg, 8 mg/kg percutaneous, phosphate salt 5.6 mg/mL in 2.5% 1-menthol/20% ethanol/77.5% distilled water, blood to 8 hr",720 ± 50 ng·h/mL
same,AUC,[2]; [3],1610 ± 300 ng·h/mL
same,MRT,[2]; [3],2.2 ± 0.5 h
same,AUC,[2]; [4],1810 ± 300 ng·h/mL
same,MRT,[2]; [4],3 ± 0.2 h
same,AUC,[2]; [5],380 ± 180 ng·h/mL
same,MRT,[2]; [5],3.4 ± 0.3 h
same,Cmax,[2]; [6],690 ± 130 ng/mL
same,Tmax,[2]; [6],1.3 ± 0.6 h
same,AUC,[2]; [7],470 ± 100 ng·h/mL
same,Cmax,[2]; [7],160 ± 10 ng/mL
same,MRT,[2]; [7],2.6 ± 0.6 h
same,Tmax,[2]; [7],1 h
same,MRT,"[2]; 16 mg/kg, 16 mg/kg percutaneous, phosphate salt 11.2 mg/mL in 2.5% 1-menthol/20% ethanol/77.5% distilled water",4 ± 0.7 h
same,AUC,"[2]; 16 mg/kg, 16 mg/kg percutaneous, phosphate salt 11.2 mg/mL in 2.5% 1-menthol/20% ethanol/77.5% distilled water, blood to 8 hr",460 ± 180 ng·h/mL
same,Percent of apparent absorption,"[2]; base 2.5% I-menthol, 20% ethanol, 77.5% isopropyl myristate, phosphate salt 5.6 mg/mL",28.1%
same,Percent of apparent absorption,"[2]; base pH 4: 3% 1-menthol/30% ethanol/67% phosphate buffer, phosphate salt 5.6 mg/mL",66.8%
same,Percent of apparent absorption,"[2]; base pH 7: 3% 1-menthol/30% ethanol/67% phosphate buffer, phosphate salt 5.6 mg/mL",22.6%
same,Percent of apparent absorption,"[2]; reference example base 5% N-methyl pyrrolidone, 5% ethanol, 90% isopropyl myristate, phosphate salt 5.6 mg/mL",17.4%
same,Percent of apparent absorption,"[2]; reference example base 5% ethanol, 95% isopropyl myristate, phosphate salt 5.6 mg/mL",13.0%
same,Percent of apparent absorption,"[2]; reference example base 5% lactic acid, 5% ethanol, 90% isopropyl myristate, phosphate salt 5.6 mg/mL",11.9%
same,concentrations of Compound (I-1) in all plasma samples,"[2]; reference example bases of Table 3, under the limit of detection",< 50 ng/mL
same,skin irritation (macroscopic check),"skin; Experiment 1: all doses (2, 8, 16 mg/kg), 2.5% 1-menthol/20% ethanol/77.5% distilled water base",No irritations
same,skin irritation (macroscopic check),"skin; Experiment 2: all formulations (pH 4 and pH 7 phosphate buffer bases), 5.6 mg/mL",No irritations
same,"acetylcholine release in frontal cortex dialysate (percent of control, time-course and AUC for 4 hrs)",acetylcholine release,prolonged pharmacological effect
